Laboratory results as given in publication PMC12079475, “Identification, validation, and characterization of approved and investigational drugs interfering with the SARS‐CoV‐2 endoribonuclease Nsp15” (Protein Science : A Publication of the Protein Society, 2025).
Like-named read-outs stand apart in the source and are kept apart here.

Key:
SARS‐CoV‐2 Nsp15 [1] = target: T1, SARS‐CoV‐2 Nsp15 (Severe acute respiratory syndrome coronavirus 2, UniProt P0DTD1); experiment: biochemical
SARS‐CoV‐2 Nsp15 [2] = target: T1, SARS‐CoV‐2 Nsp15; experiment: biochemical; type: biochemical; conditions: for inhibition at 10 µM: read-out: Inhibition % +L-Cys 10 µM
Nsp15 [3] = target: T2, Nsp15 (Severe acute respiratory syndrome coronavirus 2, UniProt P0DTD1)
[4] = system: SARS‐CoV‐2 in Vero‐E6 cells; design: method as in Zaliani et al., 2022; conditions: ref Zaliani et al., 2022, read-out: EC50 cytopathic (CPE) assay; cited from earlier work
Vero‐E6 cells = conditions: cited from earlier work
Nsp15 [5] = target: T2, Nsp15; conditions: measured particle size
SARS‐CoV Nsp15 = conditions: previously reported; ref Ortiz‐Alcantara et al., 2010; read-out: inhibition potency of SARS‐CoV Nsp15; cited from earlier work
[6] = Readout interference test: compound added after the enzymatic reaction ran to completion; conditions: normalized to the DMSO control; compound added after 1 h Nsp15/substrate reaction
[7] = design: method as in Zhao et al., 2021; conditions: ref Zhao et al., 2021; cited from earlier work
[8] = 1 mM DTT buffer, confidence interval in brackets, read-out: IC50 + DTT (μM) (CI in μM)
[9] = DTT buffer, 30 min pre-incubation, read-out: IC50
[10] = hit confirmation, 10 µM, DTT buffer, read-out: HC inhibition % +DTT 10 µM
[11] = primary screen, 10 µM (Table S1), read-out: PS Inhibition % 10 µM
[12] = primary screen, 10 μM compound, 1 mM DTT buffer, normalized to 50 μM Congo red (100%) and DMSO (0%), read-out: PS inhibition % 10 μM (single point measurement)
[13] = 1 mM L-cysteine buffer, confidence interval in brackets, read-out: IC50 + L‐Cys (μM) (CI in μM)
[14] = DTT buffer (Table S1), read-out: IC50 +DTT

| SMILES | IC50 (SARS‐CoV‐2 Nsp15 [1]; [8]) [µM] | IC50 (SARS‐CoV‐2 Nsp15 [1]; [9]) [µM] | inhibition at 10 µM (SARS‐CoV‐2 Nsp15 [1]; [10]) [%] | inhibition at 10 µM (SARS‐CoV‐2 Nsp15 [1]; [11]) [%] | inhibition at 10 µM (SARS‐CoV‐2 Nsp15 [1]; [12]) [%] | inhibition at 10 µM (SARS‐CoV‐2 Nsp15 [2]; 10 µM, L-cysteine buffer) [%] | IC50 (SARS‐CoV‐2 Nsp15 [2]; [13]) [µM] | ΔT m°C nDSF (Nsp15 [3]) [°C] | IC50 (SARS‐CoV‐2 Nsp15 [1]; [14]) [µM] | other results |
| --- | --- | --- | --- | --- | --- | --- | --- | --- | --- | --- |
| COc1cc2c(NC3CCN(C4CCCCC4)CC3)nc(N3CCCN(C(C)C)CC3)nc2cc1OCCCN1CCCCC1 [UNC0646] | 1.4 | 1.36 | 83.2 | 75.3 | 75.3 | 91.3 | 0.7 | 0 | – | IC50 (SARS‐CoV‐2 Nsp15 [2]; L‐cysteine buffer, read-out: IC50): 0.73 µM; EC50 [4]: 35.4 µM; CC50 (Vero‐E6 cells): 18.6 µM |
| CC[N+](C)(CC)CCC[n+]1c(-c2ccccc2)c2cc(N)ccc2c2ccc(N)cc21.[I-].[I-] [Propidium‐iodide] | 0.9 | – | – | – | – | – | 9 | 0.7 | 0.95 | HC inhibition % +DTT 10 µM (SARS‐CoV‐2 Nsp15 [1]; hit confirmation, 10 µM, DTT buffer): 85,94%; PS Inhibition % 10 µM (SARS‐CoV‐2 Nsp15 [1]; primary screen, 10 µM (Table S1)): 83,07%; PS inhibition % 10 μM (single point measurement) (SARS‐CoV‐2 Nsp15 [1]; primary screen, 10 μM compound, 1 mM DTT buffer, normalized to 50 μM Congo red (100%) and DMSO (0%)): 83.1%; Inhibition % +L-Cys 10 µM (SARS‐CoV‐2 Nsp15 [2]; 10 µM, L-cysteine buffer): 68,98%; effect on the hexameric Nsp15 structure (DLS) (Nsp15 [5]): significantly affected the hexameric Nsp15 structure |
| Nc1c(/N=N/c2ccc(-c3ccc(/N=N/c4cc(S(=O)(=O)O)c5ccccc5c4N)cc3)cc2)cc(S(=O)(=O)O)c2ccccc12 [Congo red] | – | 7.5 | – | – | – | – | – | – | – | IC50 (SARS‐CoV Nsp15): 2.5 µM |
| CC[n+]1c(-c2ccccc2)c2cc(N)ccc2c2ccc(N)cc21 [Homidium bromide] | – | – | – | – | – | – | – | – | – | quenching ratio of the fluorescence signal [6]: 26.13% |
| COCCn1c2c([n+](Cc3cnccn3)c1C)C(=O)c1ccccc1C2=O [YM‐155] | 1.2 | – | 79.7 | 74 | 74 | 12.4 | – | 0.1 | 1.23 | loss of the inhibition potency in L‐cysteine buffer (SARS‐CoV‐2 Nsp15 [2]; 1 mM L‐cysteine buffer compared with DTT buffer): more than 50%; cytotoxicity in cell‐based assays [7]: no cytotoxicity at tested concentrations |
